{
  "source": "patent US9796711B2",
  "about": "“Substituted pyrazolo[3,4-b]pyridin-6-carboxylic acids and method of use” (AbbVie S.àr.l., priority 2015, dated 2017)",
  "type_in_all_cases": "cell-based",
  "key": {"CFTR ΔF508": {"target": "T1, CFTR ΔF508 (Homo sapiens, UniProt P13569, DEL508-508)", "T1 construct": "bronchial epithelial cells isolated from CF patients homozygous for the CFTR ΔF508 mutation; McGill University; Asterand; University of North Carolina hAEC-CF; host or cells: primary human bronchial epithelial cells from CF patients homozygous for ΔF508", "T1 sequence (P13569 with tags, fused parts or gaps DEL508-508)": "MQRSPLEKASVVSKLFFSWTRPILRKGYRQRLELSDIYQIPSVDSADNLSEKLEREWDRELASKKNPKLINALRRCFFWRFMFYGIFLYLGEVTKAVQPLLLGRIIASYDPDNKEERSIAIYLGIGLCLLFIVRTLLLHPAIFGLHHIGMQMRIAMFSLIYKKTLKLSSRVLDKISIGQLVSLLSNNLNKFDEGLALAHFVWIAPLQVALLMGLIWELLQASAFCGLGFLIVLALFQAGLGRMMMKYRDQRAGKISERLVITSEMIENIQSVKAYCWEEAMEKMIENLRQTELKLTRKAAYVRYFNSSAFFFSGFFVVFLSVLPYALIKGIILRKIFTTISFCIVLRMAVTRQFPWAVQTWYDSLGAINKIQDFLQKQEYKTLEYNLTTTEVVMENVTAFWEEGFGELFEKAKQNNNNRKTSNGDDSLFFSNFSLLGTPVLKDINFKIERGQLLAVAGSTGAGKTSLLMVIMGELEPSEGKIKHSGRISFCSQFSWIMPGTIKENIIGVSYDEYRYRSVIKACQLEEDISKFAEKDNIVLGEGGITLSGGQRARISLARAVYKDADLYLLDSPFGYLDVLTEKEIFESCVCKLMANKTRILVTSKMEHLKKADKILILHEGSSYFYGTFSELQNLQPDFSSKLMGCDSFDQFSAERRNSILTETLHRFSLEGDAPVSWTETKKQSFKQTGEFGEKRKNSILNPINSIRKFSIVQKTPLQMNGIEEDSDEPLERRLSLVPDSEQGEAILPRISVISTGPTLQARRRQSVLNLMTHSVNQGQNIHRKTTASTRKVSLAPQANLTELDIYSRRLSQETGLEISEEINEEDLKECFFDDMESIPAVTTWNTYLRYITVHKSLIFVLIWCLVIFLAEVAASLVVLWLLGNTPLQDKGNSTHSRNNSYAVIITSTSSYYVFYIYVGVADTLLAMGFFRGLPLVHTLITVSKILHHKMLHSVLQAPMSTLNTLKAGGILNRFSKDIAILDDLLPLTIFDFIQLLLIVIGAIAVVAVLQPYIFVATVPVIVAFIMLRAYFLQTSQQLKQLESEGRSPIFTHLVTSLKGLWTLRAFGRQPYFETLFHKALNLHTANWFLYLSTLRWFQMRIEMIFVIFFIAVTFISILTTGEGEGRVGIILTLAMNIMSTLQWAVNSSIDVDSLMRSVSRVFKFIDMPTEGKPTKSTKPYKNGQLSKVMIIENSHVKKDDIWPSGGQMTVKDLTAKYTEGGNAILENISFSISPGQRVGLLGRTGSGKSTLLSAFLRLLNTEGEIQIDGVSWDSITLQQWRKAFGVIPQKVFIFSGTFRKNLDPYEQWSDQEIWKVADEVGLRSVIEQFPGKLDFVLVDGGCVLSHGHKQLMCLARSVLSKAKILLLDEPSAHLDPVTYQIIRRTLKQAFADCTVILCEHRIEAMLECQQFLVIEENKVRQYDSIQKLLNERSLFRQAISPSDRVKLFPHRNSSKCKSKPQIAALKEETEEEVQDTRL", "test": "Chronic TECC assay on primary bronchial epithelial cells (corrector, co-corrector and potentiator)", "conditions": "chronic TECC, AUC = full area under the curve upon forskolin stimulation, with co-corrector and potentiator, 24 hours", "experimental": "Primary Bronchial Epithelial Cells Protocol\nThe TECC (Tranepithelial Clamp Circuit, EP-design) assay measures the functionality of the cystic fibrosis Transmembrane Conductance regulator (CFTR) by measuring the short circuit current (Isc) generated over the basolateral and apical membrane of lung epithelial cells. In TECC the transepithelial potential PD and transepithelial resistance (Rt)) are measured in an open circuit and transformed to Ieq using Ohm's law. 24 Wells can be measured simultaneously allowing a higher throughput compared to Ussing chambers.\nFor this purpose, bronchial epithelial cells isolated from CF patients homozygous for the CFTR ΔF508 mutation (hAEC-CF, Epithelix, Geneva, Switzerland; McGill University, Montreal, Qc; Asterand, Detroit, Mich.; University of North Carolina, Chapel Hill, N.C.) are plated on type IV collagen-coated Transwell® supports (Costar). Human airway epithelia are generated by provision of an air-liquid interface for 21 days to form well-differentiated polarized cultures that resemble in vivo pseudo-stratified ciliated epithelium (Fulcher, M. L., Gabriel, S., Burns, K. A., Yankaskas, J. R., Randell, S. H., 2005. Well-differentiated human airway epithelial cell cultures. Methods Mol. Med. 107, 183-206). The differentiated cells are treated with test corrector compound(s) (corrector alone or in combination with co-corrector, 4-[(2R,4R)-4-({[1-(2,2-difluoro-1,3-benzodioxol-5-yl)cyclopropyl]carbonyl}amino)-7-methoxy-3,4-dihydro-2H-chromen-2-yl]benzoic acid (G924806/A-1618261) (“acute”) or test corrector compounds, co-corrector and potentiator, N-(3-carbamoyl-5,5,7,7-tetramethyl-4,7-dihydro-5H-thieno[2,3-c]pyran-2-yl)-1H-pyrazole-5-carboxamide GLPG1837, (“chronic”) for 24 hours basolaterally to allow sufficient expression of properly folded CFTR protein on the membrane. All compound plates contained negative controls (DMSO) and positive controls (0.15 μM, 4-[(2R,4R)-4-({[1-(2,2-difluoro-1,3-benzodioxol-5-yl)cyclopropyl]carbonyl}amino)-7-(difluoromethoxy)-3,4-dihydro-2H-chromen-2-yl]benzoic acid).\nFor electrophysiological recording of the “chronic” experiments, the human airway epithelia are mounted in the TECC heating plate for electrophysiological measurement and kept at 37° C. The epithelia are bathed in a NaCl-Ringer solution (120 mM NaCl, 25 mM NaHCO3, 1.2 mM CaCl2, 1.2 mM MgCl2, 0.8 mM KH2PO4, 0.8 mM K2HPO4, pH 7.4, 5 mM glucose) on both the basolateral and apical sides. Test compounds (corrector, co-corrector, 4-[(2R,4R)-4-({[1-(2,2-difluoro-1,3-benzodioxol-5-yl)cyclopropyl]carbonyl}amino)-7-(difluoromethoxy)-3,4-dihydro-2H-chromen-2-yl]benzoic acid, and potentiator, N-(3-carbamoyl-5,5,7,7-tetramethyl-4,7-dihydro-5H-thieno[2,3-c]pyran-2-yl)-1H-pyrazole-5-carboxamide), are re-added to the recording solution prior to measurement. Apical amiloride is used to inhibit the endogenous ENaC currents while forskolin is applied on both apical and basolateral side to stimulate CFTR. Measurements are done during a 20 minute timeframe with recordings every 2 minutes. The increase in Ieq is used as a measure for the increased CFTR activity, EC50 values can be generated by measuring impact of different concentrations of compound on Ieq on primary cells, for this purpose each transwell is treated with a different compound concentration. Inhibitor-172, an inhibitor specific for CFTR, is used to test the specificity of the tested compounds. Raw data were normalized to percentage activity values using the equation: 100×(Sample−Negative control)/(Positive control−Negative Control)."}, "ΔF508-CFTR [1]": {"target": "T2, ΔF508-CFTR (Homo sapiens, UniProt P13569, DEL508-508)", "T2 construct": "host or cells: CFBE41o-, doxycycline-inducible", "T2 sequence (P13569 with tags, fused parts or gaps DEL508-508)": "as above", "test": "CFTR cell surface levels using HRP-tagged ΔF508-CFTR expressing CFBE cells, in the presence of a co-corrector", "conditions": "HRP-tagged ΔF508-CFTR expressing CFBE cells, in the presence of 3 μM co-corrector; for EC50: read-out: EC50", "in_short": "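Cells were seeded with 0.5 μg/mL doxycycline and held 68 h at 37 °C. Test compounds plus 3 μM co-corrector (final 0.1% DMSO) were then added for 20 h at 33 °C. Washed cells received HRP substrate, and luminescence was normalized between DMSO and 3 μM co-corrector controls.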"}, "ΔF508-CFTR [2]": {"target": "T2, ΔF508-CFTR", "test": "CFTR cell surface levels using HRP-tagged ΔF508-CFTR expressing CFBE cells, intrinsic corrector capacity", "conditions": "HRP-tagged ΔF508-CFTR CFBE cells, compound alone (intrinsic corrector capacity), 20 hours at 33° C.; for EC50: read-out: EC50", "in_short": "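Here the cells express ΔF508-CFTR with horseradish peroxidase inserted in extracellular loop 4, so only rescued channel at the surface gives luminescent signal. Compounds act on their own, 20 h at the reduced temperature of 33 °C; values are percent activity relative to DMSO and a 3 μM corrector.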"}},
  "data": [
    {"smiles": "COCC1CCN(c2cc(C(=O)O)nc3c2c(C2CCC2)nn3-c2ccc(F)cc2)CC1", "note": "[compound 657, 3-cyclobutyl-1-(4-fluorophenyl)-4-[4-(methoxymethyl)piperidin-1-yl]-1H-pyrazolo[3,4-b]pyridine-6-carboxylic acid]", "values": [
      {"measurement": "EC50", "setting": "CFTR ΔF508; read-out: EC50 (nM) (AUC)", "value": 78, "unit": "nM"},
      {"measurement": "% Activation", "setting": "ΔF508-CFTR [1]", "value": 543, "unit": "%"},
      {"measurement": "EC50", "setting": "ΔF508-CFTR [1]", "value": 306, "unit": "nM"}
    ]},
    {"smiles": "O=C(O)c1cc(N2CCN(c3ccncc3)CC2)c2c(C3CCC3)nn(C3CCCCC3)c2n1", "note": "[compound 809, 3-cyclobutyl-1-cyclohexyl-4-[4-(pyridin-4-yl)piperazin-1-yl]-1H-pyrazolo[3,4-b]pyridine-6-carboxylic acid]", "values": [
      {"measurement": "% Activity at 1 μM (AUC**)", "setting": "CFTR ΔF508; 1 μM", "value": 186.6667, "unit": "%"},
      {"measurement": "% Activation", "setting": "ΔF508-CFTR [1]", "value": 452.2, "unit": "%"},
      {"measurement": "EC50", "setting": "ΔF508-CFTR [1]", "value": 184, "unit": "nM"}
    ]},
    {"smiles": "COC1CCN(C2CCN(c3cc(C(=O)O)nc4c3c(O)nn4-c3ccc(F)cc3)CC2)CC1", "note": "[compound 925, 1-(4-fluorophenyl)-3-hydroxy-4-(4-methoxy[1,4′-bipiperidin]-1′-yl)-1H-pyrazolo[3,4-b]pyridine-6-carboxylic acid]", "values": [
      {"measurement": "% Activation", "setting": "ΔF508-CFTR [2]", "value": 11.745, "unit": "%"},
      {"measurement": "% Activation", "setting": "ΔF508-CFTR [1]", "value": 126.05, "unit": "%"}
    ]},
    {"smiles": "COC1CCN(C2CCN(c3cc(C(=O)O)nc4c3c(OC(C)C)nn4-c3ccc(F)cc3)CC2)CC1", "note": "[compound 926, 1-(4-fluorophenyl)-4-(4-methoxy[1,4′-bipiperidin]-1′-yl)-3-[(propan-2-yl)oxy]-1H-pyrazolo[3,4-b]pyridine-6-carboxylic acid]", "values": [
      {"measurement": "% Activation", "setting": "ΔF508-CFTR [2]", "value": 240.2, "unit": "%"},
      {"measurement": "EC50", "setting": "ΔF508-CFTR [2]", "value": 521, "unit": "nM"},
      {"measurement": "% Activation", "setting": "ΔF508-CFTR [1]", "value": 486.6, "unit": "%"},
      {"measurement": "EC50", "setting": "ΔF508-CFTR [1]", "value": 340, "unit": "nM"}
    ]},
    {"smiles": "CN1CCC2(CC1)CCN(c1cc(C(=O)O)nc3c1c(C1CCC1)nn3-c1ccc(F)cc1)CC2", "note": "[compound 928, 3-cyclobutyl-1-(4-fluorophenyl)-4-(9-methyl-3,9-diazaspiro[5.5]undecan-3-yl)-1H-pyrazolo[3,4-b]pyridine-6-carboxylic acid]", "values": [
      {"measurement": "% Activation", "setting": "ΔF508-CFTR [2]", "value": 284.7, "unit": "%"},
      {"measurement": "EC50", "setting": "ΔF508-CFTR [2]", "value": 4030, "unit": "nM"},
      {"measurement": "% Activation", "setting": "ΔF508-CFTR [1]", "value": 362.2, "unit": "%"},
      {"measurement": "EC50", "setting": "ΔF508-CFTR [1]", "value": 2410, "unit": "nM"}
    ]},
    {"smiles": "CCOC(=O)N1CCN(c2cc(C(=O)O)nc3c2c(C2CCC2)nn3-c2ccc(F)cc2)CC1", "note": "[compound 929, 3-cyclobutyl-4-[4-(ethoxycarbonyl)piperazin-1-yl]-1-(4-fluorophenyl)-1H-pyrazolo[3,4-b]pyridine-6-carboxylic acid]", "values": [
      {"measurement": "% Activation", "setting": "ΔF508-CFTR [2]", "value": 474.3, "unit": "%"},
      {"measurement": "EC50", "setting": "ΔF508-CFTR [2]", "value": 181, "unit": "nM"},
      {"measurement": "% Activation", "setting": "ΔF508-CFTR [1]", "value": 560, "unit": "%"},
      {"measurement": "EC50", "setting": "ΔF508-CFTR [1]", "value": 83.2, "unit": "nM"}
    ]}
  ]
}
